According to patent US8080547B2, “Triazolopyridine carboxamide derivatives and triazolopyrimidine carboxamide derivatives, preparation thereof and therapeutic use thereof” (Sanofi-Aventis, priority 2007, dated 2011):

Experiments:
[1] = target: T1, MGL (monoacyl glycerol lipase) enzyme (Mus musculus, UniProt O35678); assay: radioenzymatic assay of [3H] 2-OG hydrolysis by MGL; assay type: biochemical; conditions: mouse brain homogenate; 20 min preincubation; 50 μM 2-OG; read-out: IC50 (concentration inhibiting 50% of the control enzyme activity of MGL)
T1 construct: the source of MGL enzyme is a mouse brain homogenate from which the cerebellum and the medulla oblongata have been removed; from tissue; host or cells: mouse brain homogenate (cerebellum and medulla oblongata removed)
T1 sequence (O35678 1-303): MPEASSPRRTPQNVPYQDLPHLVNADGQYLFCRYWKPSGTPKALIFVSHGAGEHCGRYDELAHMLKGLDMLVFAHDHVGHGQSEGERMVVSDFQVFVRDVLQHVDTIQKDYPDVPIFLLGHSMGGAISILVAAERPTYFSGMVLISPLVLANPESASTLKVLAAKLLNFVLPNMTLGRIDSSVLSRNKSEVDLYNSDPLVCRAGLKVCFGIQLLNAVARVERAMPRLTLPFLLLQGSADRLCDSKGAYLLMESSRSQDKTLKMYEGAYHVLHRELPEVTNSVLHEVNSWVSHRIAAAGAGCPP
Experimental: Tests comprised measuring the activity, in vitro, of the compounds of the invention on the MGL enzyme.
The inhibitory activity was measured in a radioenzymatic assay based on measuring the product of hydrolysis of 2-oleoyl glycerol ([^3H] 2-OG) by MGL. The products of hydrolysis of [^3H] 2-OG, labeled on the glycerol, are oleic acid and [^3H]glycerol, and the source of MGL enzyme is a mouse brain homogenate from which the cerebellum and the medulla oblongata have been removed. The mouse brains are removed, and stored at −80° C. until they are used or homogenized immediately for twice 5 seconds using a Precellys apparatus at 5000 rpm (Bertin) in a 10 mM Tris-HCl, 150 mM NaCl, 1 mM EDTA buffer (pH 8) at 4° C. The concentration of the homogenates is then adjusted to 7.5 μg/μl.
(§1) The dilution series of the compounds is prepared from stock solutions at 20 mM in 100% DMSO. […]
Assaying of the MGL activity is carried out in a 96-well microplate in a final reaction volume of 100 μl. […] After stirring for 10 minutes, the microplate is centrifuged for 15 minutes at 4000 g and a 30 μl aliquot of the aqueous phase containing the [^3H]glycerol produced is removed and then counted for 5 minutes by liquid scintillation (Wallac 1450 Microbeta). […]

[2] = target: T2, FAAH (Fatty Acid Amide Hydrolase) enzyme (Mus musculus, UniProt O08914); assay: radioenzymatic assay of [3H]anandamide hydrolysis by FAAH; assay type: biochemical; conditions: mouse brain homogenate; 20 min preincubation; 10 μM anandamide; read-out: IC50 (concentration which inhibits 50% of the control enzyme activity of FAAH)
T2 construct: the source of FAAH enzyme is a mouse brain homogenate from which the cerebellum and the medulla oblongata have been removed; from tissue; host or cells: mouse brain homogenate (cerebellum and medulla oblongata removed)
T2 sequence (O08914 1-579): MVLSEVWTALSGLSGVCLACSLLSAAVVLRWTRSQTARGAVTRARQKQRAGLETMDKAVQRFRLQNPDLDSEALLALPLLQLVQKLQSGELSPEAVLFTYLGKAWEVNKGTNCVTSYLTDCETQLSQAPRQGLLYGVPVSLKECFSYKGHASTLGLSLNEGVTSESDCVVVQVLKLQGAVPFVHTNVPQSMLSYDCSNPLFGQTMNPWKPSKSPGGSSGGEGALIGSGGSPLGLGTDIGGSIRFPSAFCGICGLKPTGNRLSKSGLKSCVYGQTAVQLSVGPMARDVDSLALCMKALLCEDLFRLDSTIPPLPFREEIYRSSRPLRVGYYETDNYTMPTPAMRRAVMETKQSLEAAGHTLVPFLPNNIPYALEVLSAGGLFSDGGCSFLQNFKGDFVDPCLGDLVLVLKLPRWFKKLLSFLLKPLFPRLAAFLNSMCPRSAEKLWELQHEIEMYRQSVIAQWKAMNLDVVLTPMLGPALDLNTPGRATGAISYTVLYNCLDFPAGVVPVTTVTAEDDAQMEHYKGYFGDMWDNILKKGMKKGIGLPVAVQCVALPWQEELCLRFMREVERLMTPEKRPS
Experimental: Tests comprised measuring the activity, in vitro, of the compounds of the invention on the FAAH enzyme.
The inhibitory activity was measured in a radioenzymatic assay based on measuring the product of hydrolysis (ethanolamine [1-3H]) of anandamide by FAAH (Life Science (1995), 56, 1999-2005 and Journal of Pharmacology and Experimented Therapeutics (1997), 283, 729-734). The products of hydrolysis of [^3H]anandamide, labeled on ethanolamine, are arachidonic acid and [^3H]ethanolamine and the source of FAAH enzyme is a mouse brain homogenate from which the cerebellum and the medulla oblongata have been removed. The mouse brains are removed, and stored at −80° C. until they are used or homogenized immediately for twice 5 seconds using a Precellys apparatus at 5000 rpm (Bertin) in a 10 mM Tris-HCl, 150 mM NaCl, 1 mM EDTA buffer (pH 8) at 4° C. The concentration of the homogenates is then adjusted to 20 μg/μl.
as §1
Assaying of the FAAH activity is carried out in a 96-well microplate in a final reaction volume of 70 μl. […] After stirring for 10 minutes, the microplate is centrifuged for 15 minutes at 4000 g and a 30 μl aliquot of the aqueous phase containing the [^3H]ethanolamine produced is removed and then counted for 5 minutes by liquid scintillation (Wallac 1450 Microbeta).

Compound | melting point | IC50 [1] | IC50 [2]
COc1ccc(N2CCN(C(=O)n3nnc4ccc(N5CCCC5)nc43)CC2)cc1 [Compound No. 2, [4-(4-Methoxyphenyl)piperazin-1-yl](5-pyrrolidin-1-yl[1,2,3]triazolo[4,5-b]-pyridin-3-yl)methanone] | 138 to 140 °C | – | –
O=C(N1CCN(c2cccc(C(F)(F)F)c2)CC1)n1nnc2ccc(N3CCOCC3)nc21 [compound 1, (5-morpholin-4-yl[1,2,3]triazolo[4,5-b]pyridin-3-yl)[4-(3-trifluoromethylphenyl)piperazin-1-yl]methanone] | 172 to 174 °C | 4 nM | 10 nM
O=C(N1CCN(c2cccc(C(F)(F)F)c2)CC1)n1nnc2ccc(N3CCCC3)nc21 [compound 3, (5-pyrrolidin-1-yl[1,2,3]triazolo[4,5-b]pyridin-3-yl)[4-(3-trifluoromethylphenyl)piperazin-1-yl]methanone] | 158 to 160 °C | – | –
O=C(N1CCN(c2ccc(C(F)(F)F)cc2)CC1)n1nnc2ccc(N3CCC(F)(F)C3)nc21 [compound 4, [5-(3,3-difluoropyrrolidin-1-yl)[1,2,3]triazolo[4,5-b]pyridin-3-yl)[4-(4-trifluoromethylphenyl)piperazin-1-yl]methanone] | 141 to 143 °C | – | –
